Assay results from patent publication US10626125B2, “1,1,1-trifluoro-3-hydroxypropan-2-yl carbamate derivatives as MAGL inhibitors” (PFIZER INC., priority 2017, dated 2020).
Read-outs that look alike come from different tables or passages of the source.

Columns and labels:
[1] = molecular target: T1, human recombinant Monoacylglycerol Lipase (Homo sapiens, UniProt Q99685); assay: MAGL inactivation (kinact/KI from enzyme progress curves, T=0 min protocol); details: from plot of Kobs vs. compound concentration, geometric mean of 2-5 determinations (b: ≥6)
T1 sequence (Q99685 1-303): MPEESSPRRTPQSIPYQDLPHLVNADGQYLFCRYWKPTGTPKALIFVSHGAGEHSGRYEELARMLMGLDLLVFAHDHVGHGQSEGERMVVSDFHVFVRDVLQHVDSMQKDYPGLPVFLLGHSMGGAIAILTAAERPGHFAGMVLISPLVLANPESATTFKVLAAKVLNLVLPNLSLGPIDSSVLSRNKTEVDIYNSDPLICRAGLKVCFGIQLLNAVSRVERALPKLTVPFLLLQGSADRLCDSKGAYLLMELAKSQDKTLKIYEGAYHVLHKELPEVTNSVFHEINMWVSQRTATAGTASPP

[2] = molecular target: T1, human recombinant Monoacylglycerol Lipase; assay: MAGL enzymatic assay (IC50; 7-HCA substrate added at T=0 min or T=30 min); format: biochemical; details: geometric mean of 2-5 determinations unless otherwise indicated
[3] = MAGL (T = 30 min) IC50, substrate 7-HCA added after 30 minute incubation (T=30 min)
[4] = substrate 7-HCA added immediately (T=0 min), read-out: MAGL (T = 0 min) IC50

| SMILES | MAGL kinact/KI [1] | IC50 [2, 3] [nM] | IC50 [2, 4] [nM] |
| --- | --- | --- | --- |
| O=C(O[C@H](CO)C(F)(F)F)N1CCC2(CC1)CC(n1cc(C(F)F)cn1)CO2 (single isomer, unassigned) [Example 20] | 7170 1/s per M | 11 | 107 |
| Cc1cn(C2COC3(CCN(C(=O)O[C@H](CO)C(F)(F)F)CC3)C2)nc1C (single isomer, unassigned) [Example 54] | 26500 1/s per M | 4 | 21 |
| O=C(O[C@H](CO)C(F)(F)F)N1CCC2(CC1)CC(c1ccc(C(F)F)nc1)CO2 (single isomer, unassigned) [Example 36] | 1440 1/s per M | 27 | 239 |
| CN(C(=O)Cc1ccccc1)C1CC2(CCN(C(=O)O[C@H](CO)C(F)(F)F)CC2)C1 [Example 44, (2R)-1,1,1-trifluoro-3-hydroxypropan-2-yl 2-[methyl(phenylacetyl)amino]-7-azaspiro[3.5]nonane-7-carboxylate] | 13800 1/s per M | 4 | 40 |
| O=C(O[C@H](CO)C(F)(F)F)N1CCC2(CC1)CC(n1cc(F)cn1)C2 [Example 64, (2R)-1,1,1-trifluoro-3-hydroxypropan-2-yl 2-(4-fluoro-1H-pyrazol-1-yl)-7-azaspiro[3.5]nonane-7-carboxylate] | 6260 1/s per M | 9 | 96 |

Now those with a lower IC50 [2, 3], led by results:

| MAGL kinact/KI [1] | IC50 [2, 3] [nM] | IC50 [2, 4] [nM] | SMILES |
| --- | --- | --- | --- |
| 24400 1/s per M | 2 | 9 | CC(C)(C)c1cnn(C2COC3(CCN(C(=O)O[C@H](CO)C(F)(F)F)CC3)C2)c1 (single isomer, unassigned) [Example 21] |
| 77400 1/s per M | 1 | 13 | O=C(O[C@H](CO)C(F)(F)F)N1CCC2(CC1)CC(n1cc(C3CC3)cn1)C2 [Example 49, (2R)-1,1,1-trifluoro-3-hydroxypropan-2-yl 2-(4-cyclopropyl-1H-pyrazol-1-yl)-7-azaspiro[3.5]nonane-7-carboxylate] |
| 156000 1/s per M | 0.6 | 5 | O=C(O[C@H](CO)C(F)(F)F)N1CCC2(CC1)CC(c1cc(C(F)(F)F)ccn1)C2 [Example 83, (2R)-1,1,1-trifluoro-3-hydroxypropan-2-yl 2-[4-(trifluoromethyl)pyridin-2-yl]-7-azaspiro[3.5]nonane-7-carboxylate] |
| 82100 1/s per M | 0.6 | 4 | O=C(O[C@H](CO)C(F)(F)F)N1CCC2(CC1)CC(c1cccc(C(F)F)n1)C2 [Example 77, (2R)-1,1,1-trifluoro-3-hydroxypropan-2-yl 2-[6-(difluoromethyl)pyridin-2-yl]-7-azaspiro[3.5]nonane-7-carboxylate] |
| 309000 1/s per M | 0.4 | 4 | CN(C(=O)C(C)(C)C)C1CC2(CCN(C(=O)O[C@H](CO)C(F)(F)F)CC2)C1 [Example 42, (2R)-1,1,1-trifluoro-3-hydroxypropan-2-yl 2-[(2,2-dimethylpropanoyl)(methyl)amino]-7-azaspiro[3.5]nonane-7-carboxylate] |
| 71900 1/s per M | 1 | 10 | O=C(O[C@H](CO)C(F)(F)F)N1CCC2(CCC(n3cc(C(F)(F)F)cn3)CO2)CC1 (single isomer, unassigned) [Example 69] |
| 46200 1/s per M | 1 | 13 | O=C(O[C@H](CO)C(F)(F)F)N1CCC2(CC1)CC(c1ccnc(C(F)F)c1)C2 [Example 80, (2R)-1,1,1-trifluoro-3-hydroxypropan-2-yl 2-[2-(difluoromethyl)pyridin-4-yl]-7-azaspiro[3.5]nonane-7-carboxylate] |
| 200000 1/s per M | 1 | 4 | CC(C)(C)c1ccn(C2COC3(CCN(C(=O)O[C@H](CO)C(F)(F)F)CC3)C2)n1 (single isomer, unassigned) [Example 52] |
